Measured values taken from patent publication US20060069108A1, “Use of (R)-penciclovir triphosphate for the manufacture of a medicament for the treatment of viral diseases” (priority 1995, published 2006).

Experiments:
[1] = target: HIV-1 reverse transcriptase (Human immunodeficiency virus type 1 group M subtype B, UniProt P04585); assay: Inhibition of HIV-1 reverse transcriptase; type: biochemical, human immunodeficiency virus type 1 (HIV-1)
HBV DNA polymerases = HBV DNA polymerases (Hepatitis B virus genotype D subtype ayw, UniProt P03156); assay: Inhibition of HBV DNA polymerases; type: biochemical; conditions: activity compared with the (S)-enantiomer
HBV DNA polymerases, sequence (P03156 whole entry): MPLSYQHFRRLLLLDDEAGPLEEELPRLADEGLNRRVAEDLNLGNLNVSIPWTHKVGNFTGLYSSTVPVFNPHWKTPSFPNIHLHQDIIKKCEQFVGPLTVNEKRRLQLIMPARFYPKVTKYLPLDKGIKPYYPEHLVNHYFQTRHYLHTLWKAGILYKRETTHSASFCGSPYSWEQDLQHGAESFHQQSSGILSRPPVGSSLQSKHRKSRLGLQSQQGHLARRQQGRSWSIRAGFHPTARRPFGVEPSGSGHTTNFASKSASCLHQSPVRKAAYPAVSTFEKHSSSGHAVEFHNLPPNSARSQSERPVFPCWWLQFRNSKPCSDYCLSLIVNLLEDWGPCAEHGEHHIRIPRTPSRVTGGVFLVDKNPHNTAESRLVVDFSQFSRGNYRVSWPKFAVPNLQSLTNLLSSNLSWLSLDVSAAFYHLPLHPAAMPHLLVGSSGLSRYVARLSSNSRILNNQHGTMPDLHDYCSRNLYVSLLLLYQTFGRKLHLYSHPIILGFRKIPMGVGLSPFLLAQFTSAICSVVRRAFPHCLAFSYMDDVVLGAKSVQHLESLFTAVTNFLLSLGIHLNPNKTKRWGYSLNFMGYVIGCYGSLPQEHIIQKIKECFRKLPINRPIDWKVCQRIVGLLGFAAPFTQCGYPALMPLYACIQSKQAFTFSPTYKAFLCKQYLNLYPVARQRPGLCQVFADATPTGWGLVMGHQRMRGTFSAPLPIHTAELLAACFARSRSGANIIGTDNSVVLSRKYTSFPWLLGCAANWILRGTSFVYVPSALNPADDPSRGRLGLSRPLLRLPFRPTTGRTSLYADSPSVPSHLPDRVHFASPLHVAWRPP

Row | Compound | inhibition of HIV-1 reverse transcriptase ([1]; activity compared with the (S)-enantiomer) | inhibition of HBV DNA polymerases (HBV DNA polymerases) | inhibition of RNA-directed DNA polymerase (reverse transcriptase) activity of HIV-1 [1]
1 | Nc1nc2c(ncn2CC[C@H](CO)COP(=O)(O)OP(=O)(O)OP(=O)(O)O)c(=O)[nH]1 (single isomer, unassigned) [(R)-enantiomer of PCV-TP] | more active than the (S)-enantiomer | more active than the (S)-enantiomer | –
2 | penciclovir triphosphate [triphosphate derivative of penciclovir, reference compound] | – | – | inhibits
